Reference: article PMC9424906 (Frontiers in Pharmacology, 2022)
Converted amounts (≈) assume the structure as drawn.

Key:
OCT2 = conditions: cited from earlier work
physchem = assay type: physicochemical; conditions: pH 7.4, aqueous buffer, kinetic from dmso stock
Procedure: Kinetic aqueous solubility was determined at NCATS using Pion’s patented µSOL assay as described previously ([Sun et al., 2019]).

MATE1 = conditions: cited from earlier work
[1] = design: species or system human
Procedure: Allometric methods were used to predict human plasma clearance and volume of distribution ([Mahmood and Balian, 1996]; [Sharma and McNeill, 2009]). Human PK prediction was carried out with GastroPlus, version 9.6 (SimulationsPlus, Lancaster, CA)
To predict human exposures after oral administration, human PK parameters were estimated using allometric scaling and human PK profile was simulated using GastroPlus. The allometric scaling was performed as previously described ([Mahmood and Balian, 1996]).

in vitro [2] = assay type: in vitro ADME; conditions: both sexes, human, plasma
Procedure: Plasma protein binding experiments were carried out in mixed-gender human plasma, male Sprague-Dawley rat plasma, male CD-1 plasma, male Beagle dog plasma, and male Cynomolgus monkey plasma (BioIVT) using a Pierce Rapid Equilibration Dialysis (RED) device. […] Blank phosphate-buffered saline (PBS) (500 μL) was added to each corresponding receiver chamber. After 4 h of incubation (with shaking at 37°C), both sides were aliquoted, and matrix was normalized. Samples were centrifuged at 1000 g for 10 min after adding two volumes of ACN with IS. Supernatants were diluted 1:1 with water and analyzed with LC-MS/MS.
Plasma Protein binding was calculated as follows:
% Bound = [(PARR in Donor–PARR in Receiver)/(PARR in Donor)] × 100.
PARR = peak area response ratio to internal standard, including applicable dilution factors.

MDR1 = assay: in vitro; conditions: dog, MDCK-MDR1, 5 µM; for Papp A→B at 2 h, 5 µM: MDCK-MDR1, pH 7.4, Papp A to B; for Papp B→A at 2 h, 5 µM: MDCK-MDR1, pH 7.4, Papp B to A
[3] = Pharmacokinetics in C57BL/6 mice; assay type: in vivo, mouse; conditions: male
Procedure: (§1) Adult male C57BL/6 mice and Sprague Dawley rats were purchased from Charles River Laboratory (Wilmington, MA). PK studies for mice and rats were conducted at NIH animal facility (Bethesda, MD). In-life dog and monkey PK studies were conducted at Absorption System (San Diego, CA) and Frontage Labs (Concord, OH), respectively. Dogs and monkeys were fasted overnight prior to dose administrations. All experimental procedures were reviewed and approved by the Animal Care and Use Committee (ACUC) of the NIH Division of Veterinary Resources (DVR) or CRO labs for in-life studies.
Male C57BL6 mice (n = 3 per time point, 24–40 g) were dosed at 5 mg/kg IV or 10 mg/kg oral gavage. The dosing volume was 3 mL/kg for IV and 10 ml/kg for PO. All dosing solutions were freshly prepared on the day of administration. Blood samples were collected over 24 h.
(§2) Blood samples from all groups and species were collected in K2EDTA tubes and stored on wet ice pending processing. Blood was centrifuged at 2200 g at 4°C for 10 min to isolate plasma. All samples were stored at -80°C until analysis.
(§3) Phoenix WinNonlin, version 8.1 (Certara, St. Louis, MO), was used to perform PK analysis with the non-compartmental approach (Models 200 and 201 for PO and IV datasets). The area under the plasma concentration vs. time curve (AUC) was calculated using the linear trapezoidal method. The terminal rate constant (λ) was obtained from the slope of at least three data points of the apparent terminal phase of the log-linear plasma concentration vs. time curve when available. AUC0–∞ was estimated as the sum of the AUC0–t (where t is the time of the last measurable concentration) and Ct/λ. The apparent terminal half-life (t½) was calculated as 0.693/λ. Bioavailability (F) was calculated using ratios of dose normalized AUC (AUC/Dose) obtained from PO and IV PK studies.

[4] = Pharmacokinetics in Cynomolgus monkeys; assay type: in vivo; conditions: male, cynomolgus monkey
Procedure: as §1
The dosing volumes were 2 mL/kg for IV and 5 mL/kg for PO. Blood samples were obtained from each monkey up to 48 h after IV and PO administration. Urine samples were collected over 48 h for IV group.
as §2, §3

in vitro [5] = assay type: in vitro ADME; conditions: PAMPA, pH 7.4
Procedure: Stirring double-sink PAMPA (patented by Pion Inc.) was employed to determine permeability. Assay was performed as described previously ([Sun et al., 2017]). The PAMPA lipid membrane, which consisted of an artificial membrane of a proprietary lipid mixture and dodecane (Pion Inc.), was optimized to predict cell membrane permeability. This artificial membrane was immobilized on a plastic matrix of a 96-well “donor” filter plate placed below a 96-well “acceptor” plate. Both “donor” and “acceptor” wells were buffered to pH 7.4. […] Permeability calculations were performed using Pion Inc. software and were expressed in the unit of 10^–6 cm/s.

OAT1 = conditions: cited from earlier work
OATP1B3 = conditions: cited from earlier work
[6] = C57BL/6, mouse, in vivo, iv, 5 mg/kg
[7] = C57BL/6, mouse, in vivo, po, 10 mg/kg

For N#C[C@@]1(c2ccc3c(N)ncnn23)O[C@H](CO)[C@@H](O)[C@H]1O [GS-441524], which “Substrate of OCT2” value (OCT2) is on record?
Its value is “not a substrate”.

And the solubility kinetic (physchem)?
Its solubility kinetic is 42 µg/mL (≈ 144 µM).

And the “Substrate of MATE1” value (MATE1)?
The value was “not a substrate”.

And the “Calculated human CLp as share of human hepatic blood flow” value ([1]; allometric scaling)?
The value was “approximately 10%”.

What about the “Predicted human CLp” value ([1]; allometric scaling from mouse, rat, monkey, dog) of the same molecule?
The value was 2.7 mL/min/kg.

And the “Predicted human Vdss” value ([1]; human)?
The value was 0.6 L/kg.

And the fraction unbound at 4 h, 10 µM (in vitro [2])?
The fraction unbound at 4 h, 10 µM was roughly 0.78.

What about the Papp A→B at 2 h, 5 µM (MDR1; 1 µM Valspodar) of the same molecule?
The Papp A→B at 2 h, 5 µM was 0.484 ×10⁻⁶ cm/s.

And the Papp A→B at 2 h, 5 µM (MDR1; no inhibitor)?
The Papp A→B at 2 h, 5 µM was 0.158 ×10⁻⁶ cm/s.

And the Papp B→A at 2 h, 5 µM (MDR1; 1 µM Valspodar)?
Its Papp B→A at 2 h, 5 µM is 0.468 ×10⁻⁶ cm/s.

What about the Papp B→A at 2 h, 5 µM (MDR1; no inhibitor) of the same molecule?
Its Papp B→A at 2 h, 5 µM is 0.521 ×10⁻⁶ cm/s.

What about the Vd [3, 6] of the same molecule?
The Vd was 2.4 L/kg.

And the clearance [3, 6]?
Its clearance is 26 mL/min/kg.

What about the AUC(0-inf) [3, 7] of the same molecule?
Its AUC(0-inf) is 2540 ng·h/mL.

And the Cmax [3, 7]?
Its Cmax is 582 ng/mL.

And the Tmax [3, 7]?
Its Tmax is 1.5 h.

What about the bioavailability [3, 7] of the same molecule?
Its bioavailability is 39%.

And the half-life ([3]; C57BL/6, plasma, Mouse, PO 10 mg/kg)?
Its half-life is 3.9 h.

And the Vd ([4]; in vivo, iv, 2 mg/kg)?
Its Vd is 1.1 ± 0.04 L/kg.

What about the clearance ([4]; in vivo, iv, 2 mg/kg) of the same molecule?
Its clearance is 9.5 ± 1 mL/min/kg.

And the AUC(0-inf) ([4]; in vivo, po, 5 mg/kg)?
The AUC(0-inf) was 734 ± 138 ng·h/mL.

What about the Cmax ([4]; in vivo, po, 5 mg/kg) of the same molecule?
The Cmax was 59.4 ± 18.1 ng/mL.

What about the Tmax ([4]; in vivo, po, 5 mg/kg) of the same molecule?
Its Tmax is 2 h.

What about the bioavailability ([4]; in vivo, po, 5 mg/kg) of the same molecule?
Its bioavailability is 8.3 ± 1.6%.

What about the half-life ([4]; plasma, Monkey, PO 5 mg/kg) of the same molecule?
The half-life was 7.7 ± 1.4 h.

And the Papp at 30 min (in vitro [5])?
Its Papp at 30 min is less than 1 ×10⁻⁶ cm/s.

What about the “Substrate of OAT1” value (OAT1) of the same molecule?
The value was “not a substrate”.

And the “Substrate of OATP1B3” value (OATP1B3)?
Its value is “not a substrate”.
